Data reported in US11911349B2, “Rapidly improving vascular conditions by administering vitamin K” (NATTOPHARMA AS, priority 2018, dated 2024).

Assays:
matrix gla protein (MGP) = assay: Clinical study: blood analysis of matrix gla protein (MGP) carboxylation; format: in vivo, human; conditions: 360 ug/day for 8 weeks, kidney transplant patients
Description: (§1) Participants were enrolled in a clinical trial in which the effects of vitamin K2 were determined for patients who had recently undergone a kidney transplant. At the beginning of the study, patients were subjected to a non-invasive pulse wave velocity measurement to measure arterial stiffness/flexibility, as well as blood analysis. The study participants were then instructed to receive a specific daily dose of MenaQ7 vitamin K2 menaquinone-7 (360 ug/day) for a total of 8 weeks. At the end of 8 weeks, patients were again examined with a follow-up examination, a non-invasive pulse wave velocity measurement and blood analysis and drug treatment was discontinued.
As part of the blood analysis, carboxylated matrix gla protein (MGP) was measured as a direct measure of vitamin K2 activity. The carboxylated MGP inhibits calcification of blood vessels and Vitamin K2 stimulates carboxylation of MGP.

[1] = system: kidney transplantation patients; assay: Clinical study: pulse wave velocity measurement of arterial stiffness in kidney transplantation patients; format: in vivo, human; conditions: 360 ug/day for 8 weeks, kidney transplant patients
Description: Clinical Study to study the efficacy and safety of Vitamin K2 supplementation on arterial stiffness, the rigidity of arterial walls, in kidney transplantation patients.
A clinical study was carried out. Arterial wall property measurements were taken at t=0 and t=8 weeks and show a dramatic improvement in arterial wall flexibility. This is good support for concluding that the ingestion of vitamin K, even over this short period, is an effective way of improving endothelial function, reducing arterial stiffness and reducing calcification. […] It is surprising and unexpected because calcification is a slow progressive process and it was thought that reversing this process would also be slow and progressive.
as §1

In the case of `CC(C)=CCC/C(C)=C/CC/C(C)=C/CC/C(C)=C/CC/C(C)=C/CC/C(C)=C/CC/C(C)=C/CC1=C(C)C(=O)c2ccccc2C1=O` [MenaQ7, menaquinone-7], the “mean reduction of levels of uncarboxylated MGP” value (matrix gla protein (MGP)) was 55% and the “mean reduction in measured pulse-wave velocity” value [1] was 30%.
